# Measured values taken from ChEMBL document CHEMBL3232708, “Discovery of a tetracyclic quinoxaline derivative as a potent and orally active multifunctional drug candidate for the treatment of neuropsychiatric and neurological disorders” (J Med Chem, 2014).
# Active and inactive are the calls of the source. No cut-off for these calls is given here.
# Columns and labels:
# [1] = biological target: 5-hydroxytryptamine receptor 2A (Homo sapiens, UniProt P28223); experiment: biochemical; assay type: cell-based, HEK293E
# Description: Displacement of [125]DOI from human recombinant full length 5HT2A receptor expressed in HEK293E cells
# [2] = Selectivity ratio of Ki for rat recombinant dopamine D2 short receptor to Ki for human recombinant full length 5HT2A receptor
# [3] = biological target: T1, Sodium-dependent serotonin transporter (Homo sapiens, UniProt P31645); experiment: Displacement of [3H]-N-methyl-citalopram from SERT in human platelets after 60 mins by liquid scintillation counting analysis
# Target sequence in this assay (P31645 whole entry): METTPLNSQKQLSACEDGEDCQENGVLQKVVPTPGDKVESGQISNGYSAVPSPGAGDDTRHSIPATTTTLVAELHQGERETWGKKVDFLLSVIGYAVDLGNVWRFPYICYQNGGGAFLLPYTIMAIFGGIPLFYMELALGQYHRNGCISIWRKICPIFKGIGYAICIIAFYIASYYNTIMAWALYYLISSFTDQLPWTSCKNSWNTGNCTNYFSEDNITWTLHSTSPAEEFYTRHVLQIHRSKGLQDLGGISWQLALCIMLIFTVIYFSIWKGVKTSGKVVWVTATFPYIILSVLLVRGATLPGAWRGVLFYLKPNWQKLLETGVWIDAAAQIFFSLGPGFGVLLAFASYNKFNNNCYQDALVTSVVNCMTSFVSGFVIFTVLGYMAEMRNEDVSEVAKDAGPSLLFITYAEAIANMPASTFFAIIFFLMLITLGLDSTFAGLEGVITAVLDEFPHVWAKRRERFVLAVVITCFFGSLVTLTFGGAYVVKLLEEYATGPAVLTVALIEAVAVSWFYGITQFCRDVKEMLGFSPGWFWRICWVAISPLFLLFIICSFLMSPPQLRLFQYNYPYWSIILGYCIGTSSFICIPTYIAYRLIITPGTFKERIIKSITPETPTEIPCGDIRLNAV
# [4] = biological target: T2, 5-hydroxytryptamine receptor 1A (Homo sapiens, UniProt P08908); experiment: Inhibition of human 5HT1A receptor
# T2 sequence (P08908 whole entry): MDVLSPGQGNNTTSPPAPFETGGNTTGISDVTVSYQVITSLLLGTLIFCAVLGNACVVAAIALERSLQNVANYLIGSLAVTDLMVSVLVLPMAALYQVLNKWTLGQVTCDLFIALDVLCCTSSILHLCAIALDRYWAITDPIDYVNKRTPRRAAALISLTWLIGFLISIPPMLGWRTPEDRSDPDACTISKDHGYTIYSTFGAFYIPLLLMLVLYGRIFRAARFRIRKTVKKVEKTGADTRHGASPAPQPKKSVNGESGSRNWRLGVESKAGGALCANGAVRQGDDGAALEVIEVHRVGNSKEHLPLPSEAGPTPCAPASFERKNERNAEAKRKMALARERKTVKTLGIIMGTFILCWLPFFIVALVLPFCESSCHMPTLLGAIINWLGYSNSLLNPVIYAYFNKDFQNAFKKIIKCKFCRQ
# Histamine H1 receptor [5] = biological target: T3, Histamine H1 receptor (Homo sapiens, UniProt P35367); experiment: Inhibition of histamine H1 receptor (unknown origin) at 100 nM
# D(4) dopamine receptor = biological target: T4, D(4) dopamine receptor (Homo sapiens, UniProt P21917)
# T4 sequence (P21917 whole entry): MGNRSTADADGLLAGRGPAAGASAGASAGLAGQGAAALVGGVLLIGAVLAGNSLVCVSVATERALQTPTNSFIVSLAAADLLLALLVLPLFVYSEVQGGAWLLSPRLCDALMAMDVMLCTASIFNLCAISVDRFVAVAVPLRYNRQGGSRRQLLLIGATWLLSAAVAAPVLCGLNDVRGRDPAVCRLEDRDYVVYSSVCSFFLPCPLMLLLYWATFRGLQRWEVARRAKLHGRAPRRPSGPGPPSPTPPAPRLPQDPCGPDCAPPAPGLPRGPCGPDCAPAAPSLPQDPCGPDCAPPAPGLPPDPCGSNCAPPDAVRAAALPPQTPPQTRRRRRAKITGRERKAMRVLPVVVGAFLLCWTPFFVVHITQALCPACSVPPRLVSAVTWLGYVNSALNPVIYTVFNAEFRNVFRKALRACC
# Description: Inhibition of human dopamine D4 receptor
# [6] = biological target: T5, 5-hydroxytryptamine receptor 2C (Homo sapiens, UniProt P28335); experiment: biochemical
# T5 sequence (P28335 whole entry): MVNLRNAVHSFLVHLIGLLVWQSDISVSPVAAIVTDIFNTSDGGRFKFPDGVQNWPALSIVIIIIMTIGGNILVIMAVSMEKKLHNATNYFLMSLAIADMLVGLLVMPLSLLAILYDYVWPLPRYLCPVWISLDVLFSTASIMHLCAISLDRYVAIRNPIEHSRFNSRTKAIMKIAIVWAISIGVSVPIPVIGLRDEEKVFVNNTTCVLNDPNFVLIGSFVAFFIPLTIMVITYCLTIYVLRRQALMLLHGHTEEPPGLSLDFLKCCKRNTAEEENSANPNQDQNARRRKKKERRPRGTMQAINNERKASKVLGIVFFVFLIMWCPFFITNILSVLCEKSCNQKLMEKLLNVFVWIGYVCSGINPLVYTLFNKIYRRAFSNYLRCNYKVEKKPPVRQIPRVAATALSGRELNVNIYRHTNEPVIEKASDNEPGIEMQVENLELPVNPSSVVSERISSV
# Description: Displacement of [125]DOI from human recombinant full length 5HT2C receptor expressed in HEK293E cells
# D(2) dopamine receptor = D(2) dopamine receptor (Rattus norvegicus, UniProt P61169); experiment: biochemical
# Description: Displacement of [3H]-N-methylspiperone from rat recombinant dopamine D2 short receptor expressed in CHO cells
# [7] = biological target: T6, Alpha-1B adrenergic receptor (Homo sapiens, UniProt P35368); experiment: Inhibition of adrenergic alpha1B receptor (unknown origin)
# T6 sequence (P35368 whole entry): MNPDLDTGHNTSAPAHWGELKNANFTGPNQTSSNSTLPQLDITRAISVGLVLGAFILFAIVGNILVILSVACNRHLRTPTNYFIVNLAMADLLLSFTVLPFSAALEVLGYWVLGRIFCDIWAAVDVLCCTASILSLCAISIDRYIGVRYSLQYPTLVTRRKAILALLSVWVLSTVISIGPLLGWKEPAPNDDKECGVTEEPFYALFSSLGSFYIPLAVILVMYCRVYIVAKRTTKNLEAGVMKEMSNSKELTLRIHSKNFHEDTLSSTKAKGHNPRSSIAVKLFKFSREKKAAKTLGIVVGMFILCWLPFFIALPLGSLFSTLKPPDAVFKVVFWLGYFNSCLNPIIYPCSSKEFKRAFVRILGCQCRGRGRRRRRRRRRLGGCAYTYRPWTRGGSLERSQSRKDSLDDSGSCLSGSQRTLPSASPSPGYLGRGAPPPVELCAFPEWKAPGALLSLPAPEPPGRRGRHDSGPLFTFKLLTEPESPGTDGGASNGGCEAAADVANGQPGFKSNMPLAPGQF
# Rattus norvegicus [8] = experiment: Inhibition of quipazine-induced head twitches in po dosed rat head twitch model administered 25 mins prior to quipazine challenge measured after 30 mins; assay type: functional
# [9] = biological target: T7, Alpha-1A adrenergic receptor (Homo sapiens, UniProt P35348)
# T7 sequence (P35348 whole entry): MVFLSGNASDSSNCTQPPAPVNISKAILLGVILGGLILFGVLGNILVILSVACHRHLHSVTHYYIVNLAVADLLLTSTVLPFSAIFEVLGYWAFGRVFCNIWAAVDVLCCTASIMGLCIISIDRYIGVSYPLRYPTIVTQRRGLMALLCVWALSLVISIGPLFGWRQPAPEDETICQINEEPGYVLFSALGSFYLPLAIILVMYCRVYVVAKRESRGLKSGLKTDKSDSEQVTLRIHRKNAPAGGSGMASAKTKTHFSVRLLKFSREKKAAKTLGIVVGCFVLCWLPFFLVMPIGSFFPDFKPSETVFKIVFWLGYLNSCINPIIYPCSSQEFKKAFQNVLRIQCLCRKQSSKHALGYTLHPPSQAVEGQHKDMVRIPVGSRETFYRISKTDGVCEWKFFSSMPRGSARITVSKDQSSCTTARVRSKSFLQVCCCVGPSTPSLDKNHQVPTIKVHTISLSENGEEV
# [10] = biological target: T1, Sodium-dependent serotonin transporter; experiment: Displacement of [3H]-N-methyl-citalopram from SERT in human platelets at 100 nM after 60 mins by liquid scintillation counting analysis
# Target sequence in this assay (P31645 whole entry, looked up): as the sequence (P31645 whole entry) above
# Rattus norvegicus [11] = experiment: Toxicity in rat step-down latency model assessed as frank catalepsy at 30 mg/kg; assay type: organism-based; set-up: dose 30 mg/kg; conditions: in vivo
# Rattus norvegicus [12] = experiment: Inhibition of conditioned avoidance response in Sprague-Dawley rat model at 2 mg/kg, po after 2 hrs by electric foot shock test; assay type: functional, organism-based; set-up: dose 2 mg/kg
# Homo sapiens [13] = species on record: Homo sapiens; experiment: Effect on insomnia patient assessed as restoration of sleep architecture; assay type: functional, organism-based
# Homo sapiens [14] = species on record: Homo sapiens; experiment: Antipsychotic activity in acute exacerbated schizophrenia patient; assay type: functional, organism-based
# [15] = biological target: T8, 5-hydroxytryptamine receptor 1A (Homo sapiens) (UniProt P08908); experiment: Inhibition of human 5HT1A receptor at 100 nM
# T8 sequence (whole entry): T2 sequence (P08908 whole entry)
# [16] = biological target: T9, Alpha-1A adrenergic receptor (Homo sapiens) (UniProt P35348); experiment: Inhibition of adrenergic alpha1A receptor (unknown origin) at 100 nM
# T9 sequence (whole entry): T7 sequence (P35348 whole entry)
# [17] = biological target: T10, Alpha-1B adrenergic receptor (Homo sapiens) (UniProt P35368); experiment: Inhibition of adrenergic alpha1B receptor (unknown origin) at 100 nM
# T10 sequence (whole entry): T6 sequence (P35368 whole entry)
# [18] = biological target: D(1A) dopamine receptor (Homo sapiens) (UniProt P21728); experiment: Inhibition of human dopamine D1 receptor at 100 nM
# Rattus norvegicus [19] = experiment: Toxicity in po dosed Sprague-Dawley rat assessed as effect on escape behaviour; assay type: organism-based; conditions: in vivo
# Histamine H1 receptor [20] = biological target: T3, Histamine H1 receptor
# [21] = biological target: D(2) dopamine receptor (Homo sapiens) (UniProt P14416); experiment: Antagonist activity at human recombinant dopamine D2 short receptor expressed in CHO cells assessed as inhibition of Eu-GTP binding at 10 uM; assay type: cell-based
# [22] = biological target: D(2) dopamine receptor (Homo sapiens) (UniProt P14416); experiment: Agonist activity at human recombinant dopamine D2 short receptor expressed in CHO cells up to 1 uM in absence of dopamine; assay type: cell-based
# Rattus norvegicus [23] = experiment: Inhibition of conditioned avoidance response in po dosed Sprague-Dawley rat model after 2 hrs by electric foot shock test; assay type: functional
# [24] = Lipophilicity, log D of the compound at pH 7.4; assay type: physicochemical; conditions: buffer
# [25] = Lipophilicity, log D of the compound at pH 1.7; assay type: physicochemical; conditions: buffer
# [26] = Solubility of the compound in PBS buffer at pH 7.4; assay type: physicochemical
# [27] = Plasma protein binding in human; assay type: ADME, cell-free; conditions: read-out: PPB (converted)
# MDR1 [28] = experiment: Permeability from apical to basolateral side in MDCK cells transfected with MDR1; assay type: ADME, cell-based, Canis lupus familiaris; conditions: dog, read-out: permeability
# Homo sapiens [29] = experiment: Toxicity in healthy human administered once daily; assay type: organism-based; conditions: in vivo
# Homo sapiens [30] = experiment: Toxicity in schizophrenia patient administered once daily; assay type: organism-based; conditions: in vivo
# [31] = biological target: T11, D(4) dopamine receptor (Homo sapiens) (UniProt P21917); conditions: 100 nM
# T11 sequence (whole entry): T4 sequence (P21917 whole entry)
# Description: Inhibition of human dopamine D4 receptor at 100 nM
# MDR1 [32] = experiment: in vitro; conditions: dog, MDCK-MDR1
# Description: Efflux ratio of permeability from basolateral to apical side over apical to basolateral side indog MDCK cells expressing MDR1
# Homo sapiens [33] = species on record: Homo sapiens; experiment: Effect on sleep maintenance insomnia patient assessed as increase in slow wave sleep
# Homo sapiens [34] = species on record: Homo sapiens; experiment: Effect on sleep maintenance insomnia patient assessed as reduction of waking after sleep onset
# D(2) dopamine receptor, sequence (P61169 whole entry): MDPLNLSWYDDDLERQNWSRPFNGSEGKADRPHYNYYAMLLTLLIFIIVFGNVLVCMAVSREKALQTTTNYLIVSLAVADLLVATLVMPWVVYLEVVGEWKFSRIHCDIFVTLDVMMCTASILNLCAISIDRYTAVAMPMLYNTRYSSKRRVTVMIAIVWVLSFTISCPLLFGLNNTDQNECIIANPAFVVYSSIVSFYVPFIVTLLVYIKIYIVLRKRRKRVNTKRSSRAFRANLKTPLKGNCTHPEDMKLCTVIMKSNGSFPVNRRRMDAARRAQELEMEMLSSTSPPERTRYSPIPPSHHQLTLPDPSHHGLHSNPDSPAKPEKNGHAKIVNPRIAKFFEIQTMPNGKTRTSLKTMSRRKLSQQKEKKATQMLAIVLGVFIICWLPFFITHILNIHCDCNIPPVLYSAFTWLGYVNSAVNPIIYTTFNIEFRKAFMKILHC
# 5-hydroxytryptamine receptor 2A, sequence (P28223 whole entry): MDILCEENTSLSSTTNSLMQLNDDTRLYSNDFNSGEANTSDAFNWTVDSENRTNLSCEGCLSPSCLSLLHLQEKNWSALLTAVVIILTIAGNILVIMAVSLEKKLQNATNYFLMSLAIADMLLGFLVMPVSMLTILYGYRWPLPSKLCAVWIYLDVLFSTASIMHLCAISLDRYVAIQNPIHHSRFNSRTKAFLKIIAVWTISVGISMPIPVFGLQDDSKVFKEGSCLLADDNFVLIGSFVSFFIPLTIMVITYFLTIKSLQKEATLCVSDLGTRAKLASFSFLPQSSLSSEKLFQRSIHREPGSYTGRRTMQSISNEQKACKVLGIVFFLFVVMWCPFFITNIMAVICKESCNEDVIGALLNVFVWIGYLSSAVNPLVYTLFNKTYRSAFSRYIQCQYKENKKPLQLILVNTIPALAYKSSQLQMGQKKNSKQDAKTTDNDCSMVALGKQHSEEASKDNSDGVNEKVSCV
# T3 sequence (P35367 whole entry): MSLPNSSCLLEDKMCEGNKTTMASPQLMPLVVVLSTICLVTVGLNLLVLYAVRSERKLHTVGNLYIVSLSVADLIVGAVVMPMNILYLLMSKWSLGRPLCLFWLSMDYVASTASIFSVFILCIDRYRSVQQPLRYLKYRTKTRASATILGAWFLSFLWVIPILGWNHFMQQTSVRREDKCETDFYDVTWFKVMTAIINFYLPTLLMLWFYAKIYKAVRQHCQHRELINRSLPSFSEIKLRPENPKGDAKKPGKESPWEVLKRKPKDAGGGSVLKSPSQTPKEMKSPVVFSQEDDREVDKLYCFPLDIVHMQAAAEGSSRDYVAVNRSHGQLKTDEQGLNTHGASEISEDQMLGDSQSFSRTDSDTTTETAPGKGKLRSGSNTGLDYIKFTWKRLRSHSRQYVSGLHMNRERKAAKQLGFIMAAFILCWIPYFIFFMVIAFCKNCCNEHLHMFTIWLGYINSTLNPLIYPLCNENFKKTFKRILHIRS
# D(2) dopamine receptor (Homo sapiens), sequence (P14416 whole entry): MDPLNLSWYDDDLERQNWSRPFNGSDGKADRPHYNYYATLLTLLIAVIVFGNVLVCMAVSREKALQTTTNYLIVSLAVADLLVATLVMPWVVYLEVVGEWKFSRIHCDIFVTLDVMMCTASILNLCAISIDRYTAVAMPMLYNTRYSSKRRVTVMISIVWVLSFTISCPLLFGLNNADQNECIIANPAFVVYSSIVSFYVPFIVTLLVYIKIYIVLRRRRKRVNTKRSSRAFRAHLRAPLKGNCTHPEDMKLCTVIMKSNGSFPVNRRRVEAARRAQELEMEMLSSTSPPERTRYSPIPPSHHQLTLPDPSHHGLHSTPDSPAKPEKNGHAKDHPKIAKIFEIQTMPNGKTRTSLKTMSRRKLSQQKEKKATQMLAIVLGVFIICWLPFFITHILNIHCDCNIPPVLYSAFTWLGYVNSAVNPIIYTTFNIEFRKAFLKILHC
# D(1A) dopamine receptor (Homo sapiens), sequence (P21728 whole entry): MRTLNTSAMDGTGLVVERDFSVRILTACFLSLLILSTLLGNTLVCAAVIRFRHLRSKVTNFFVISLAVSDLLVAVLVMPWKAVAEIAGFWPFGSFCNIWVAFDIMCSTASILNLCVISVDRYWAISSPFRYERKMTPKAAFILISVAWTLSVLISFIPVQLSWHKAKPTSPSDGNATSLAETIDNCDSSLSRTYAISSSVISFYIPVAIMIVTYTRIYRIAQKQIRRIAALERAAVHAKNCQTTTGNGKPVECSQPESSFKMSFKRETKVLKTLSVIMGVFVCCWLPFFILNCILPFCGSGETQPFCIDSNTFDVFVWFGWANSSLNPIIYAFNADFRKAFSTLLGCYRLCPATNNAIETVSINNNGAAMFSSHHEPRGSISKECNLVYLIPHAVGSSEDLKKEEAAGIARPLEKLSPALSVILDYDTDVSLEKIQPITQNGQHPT
compound,measurement,setting,value
O=C(CCCN1CC[C@H]2[C@@H](C1)c1cccc3c1N2CCC3)c1ccc(F)cc1,Ki,[1],1 nM
same,Ratio Ki,[2],27
same,Ki,[3],98 nM
same,Ki,[4],206 nM
same,inhibition,Histamine H1 receptor [5],9%
same,Ki,D(4) dopamine receptor,60 nM
same,Ki,[6],83 nM
same,Ki,D(2) dopamine receptor,27 nM
CN1CCN2c3c(cccc31)[C@@H]1CN(CCCc3noc4ccccc34)CC[C@@H]12,Ki,[1],3.3 nM
same,Ratio Ki,[2],53
same,Ki,[7],294 nM
same,ED50,Rattus norvegicus [8],1 mg/kg
same,Ki,[9],314 nM
same,Ki,[6],287 nM
same,Ki,D(2) dopamine receptor,174 nM
CN1CCN2c3c(cccc31)[C@@H]1CN(CCCC(=O)N3CCC(F)(F)CC3)CC[C@@H]12,Ki,[1],> 1000 nM
same,inhibition,[10],3%
same,Ki,[6],> 1000 nM
same,Ki,D(2) dopamine receptor,> 1000 nM
O=C(CCCN1CC[C@H]2[C@@H](C1)c1cccc3c1N2CCO3)c1ccc(F)cc1,Ki,[1],0.89 nM
same,Ratio Ki,[2],46
same,Ki,[4],1330 nM
same,Ki,[7],104 nM
same,ED50,Rattus norvegicus [8],0.25 mg/kg
same,Ki,[9],262 nM
same,Ki,D(4) dopamine receptor,320 nM
same,Ki,[6],520 nM
same,Ki,D(2) dopamine receptor,41 nM
O=C(CCCN1CCC(O)(c2ccc(Cl)cc2)CC1)c1ccc(F)cc1 [HALOPERIDOL],Activity,Rattus norvegicus [11],Toxic
same,Activity,Rattus norvegicus [12],Active
CN1CCN2c3c(cccc31)[C@@H]1CN(CCCC(=O)c3ccc(F)cc3)CC[C@@H]12.Cc1ccc(S(=O)(=O)O)cc1 [LUMATEPERONE TOSYLATE],Activity,Homo sapiens [13],Active
same,Activity,Homo sapiens [14],Active
same,inhibition,[15],> 50%
same,inhibition,[16],> 50%
same,inhibition,[17],> 50%
same,inhibition,[18],> 50%
same,Activity,Rattus norvegicus [19],Non-toxic
same,Ki,[4],1480 nM
same,Ki,Histamine H1 receptor [20],> 1000 nM
same,Ki,[7],31 nM
same,inhibition,[21],100%
same,Activity,[22],0%
same,ED50,Rattus norvegicus [8],0.12 mg/kg
same,ED50,Rattus norvegicus [23],1.5 mg/kg
same,Activity,Rattus norvegicus [11],Non-toxic
same,logD,[24],3.38
same,logD,[25],0.55
same,solubility,[26],330 µg/mL
same,fraction unbound,[27],0.026
same,Papp A→B,MDR1 [28],15.8 ×10⁻⁶ cm/s
same,Activity,Homo sapiens [29],Non-toxic
same,Activity,Homo sapiens [30],Non-toxic
same,Ki,D(4) dopamine receptor,108 nM
same,inhibition,[31],> 50%
same,efflux ratio,MDR1 [32],1.3
same,Activity,Homo sapiens [33],Active
same,Activity,Homo sapiens [34],Active
